# According to patent US20030100565A1, “Method for the treatment or prevention of atopic dermatitis” (Boehringer Ingelheim International GmbH, priority 2001, published 2003):
# Columns and labels:
# SP-induced scratching [1] = assay: Effect on SP-induced scratching in mice; type: in vivo, ddY mice; conditions: for effect on SP-induced scratching compared with Compounds Ia and Ib: mice, dose not stated; for scratching behavior count induced by SP: 1 h before intradermal SP, FIG. 1, control 50.5±12.1, mean±S.E.; for scratching behaviour count induced by SP: another experiment
# Protocol: Assay: Effect of NK1 Receptor Antagonist Ia, on SP-Induced Scratching in Mice Male ddY mice (Japan SLC, Ltd., Shizuoka, Japan) of 8-9 weeks of ages weighing 34-43 g, were used in the experiment. Mice were fasted 4 hours prior to the initiation of the experiment with free access to water. Epinastine and NK1 receptor antagonist of formulae Ia, Ib, Ic and Id (Compounds Ia to Id) were provided by Boehringer Ingelheim Pharma K.G. (Germany). SP (lot. No. 80K5 104) was supplied by Sigma Co., Ltd. (USA) and dissolved in physiological saline. Before recording of behavior, the mice (two animals per one cage) were put into an acryl cage for at least 5 hours for acclimation. […] Playing back of video served for counting scratching behavior. […] Data were analyzed by One-way ANOVA and post hoc Tukey test; p<0.05 value was considered. Data presented as the mean±S.E.
# SP-induced scratching [2] = assay: Effect on SP-induced scratching in guinea pigs; type: in vivo, Hartley guinea pigs; conditions: for effect on SP-induced scratching compared with Compounds Ia and Id: dose not stated
# Protocol: Assay: Effect of NK1 Receptor Antagonist Ia, on SP-Induced Scratching in Guinea Pigs
# Male Hartley guinea pigs (Japan SLC, Ltd., Shizuoka, Japan) of 4-5 weeks old weighing 275-395 g were used in the experiment. The guinea pigs were fasted more than 12 hours prior to the initiation of the experiment with free access to water. 6-8 guinea pigs were used for each group.
# Prior to the recording of behaviour, the guinea pigs (one animal per cage) were kept in a cage for observation for at least 1 hour for acclimation. Compound Ia was dosed at 1 hour prior to the administration of substance P. […] SP (150 μg/body) was injected intradermally in volume of 20 μL into the rostral back (around interscapular level). Immediately after the administration of SP, the behaviour of the guinea pigs were recorded using VHS video camera for 1 hour with any persons kept out the observation room (sound proof condition). Playing back of video was served for counting the number of scratching behaviour.
# The total scratching counts during 60 min of observation were analysed by one-way ANOVA and Dunnett's multiple comparison test between vehicle treatment and drug treatments; p<0.05 value was considered as significant. Scratching counts were expressed as the mean+S.E.
# SP-induced scratching [3] = conditions: mice; reported by Inagaki et al., Eur J Pharmacol 2000; cited from earlier work
molecule,measurement,setting,value
"CN(CCc1cc(C(F)(F)F)cc(C(F)(F)F)c1)C(=O)[C@H](c1ccccc1)N1CCC(NC(CO)CO)CC1 [Compound Id, (S)-N-[2-(3,5-Bis-trifluormethyl-phenyl)-ethyl]-2-[4-(2-hydroxy-1-hydroxymethyl-ethylamino)-piperidin-1-yl]-N-methyl-2-phenylacetamid]",effect on SP-induced scratching compared with Compounds Ia and Ib,SP-induced scratching [1],Comparable results
same,inhibition of scratching behaviour induced by substance P,"SP-induced scratching [2]; guinea pigs, 0.3, 1.0 and 3.0 mg/kg p.o., FIG. 6",inhibited
"(S)-N-[2-(3,5-Bis-trifluormethyl-phenyl)-ethyl]-2-{4-[cyclopropylmethyl-(3-hydroxy-propyl) -amino]-piperidin-1-yl}-N-methyl-2-phenyl-acetamid [Compound Ib]",inhibition of scratching behaviour induced by substance P,"SP-induced scratching [1]; 30 mg/kg p.o., FIG. 4",inhibited
same,effect on SP-induced scratching compared with Compounds Ia and Id,SP-induced scratching [2]; guinea pigs,Comparable results
CN(CCc1cc(C(F)(F)F)cc(C(F)(F)F)c1)C(=O)[C@H](c1ccccc1)N1CCN(CC2CC2)CC1 [Compound Ia],scratching behavior count induced by SP,SP-induced scratching [1]; 30 mg/kg p.o.,21.1±6.1 beats/60 min
same,scratching behaviour count induced by SP,"SP-induced scratching [1]; 30 mg/kg p.o., FIG. 2a, control 59.0±6.0/60 min",29.9±6.6 beats/60 min
same,dose dependency of effect on SP-induced scratching behavior,"SP-induced scratching [1]; 10 and 30 mg/kg p.o., FIG. 3, vehicle 51.0±12.9 beats/60 min","inhibited the scratching induced by SP, and the effect was dose dependent"
same,overall effect on scratching behaviour (conclusion),"SP-induced scratching [1]; ddY mice, effect similar to epinastine",apparent inhibitory effect
same,inhibition of scratching behaviour induced by SP,"SP-induced scratching [2]; guinea pigs, higher doses of 0.1 mg/kg p.o., FIG. 5.1",significant inhibition
same,inhibition of scratching behaviour induced by SP,"SP-induced scratching [2]; guinea pigs, lower doses of 0.03 mg/kg p.o., FIG. 5.2",tendency to inhibit
same,"inhibition of scratching behaviour induced by SP, dose dependency","SP-induced scratching [2]; guinea pigs, p.o., 1 h before SP, FIG. 5",inhibited the scratching behaviour induced by SP dose dependently
"NC1=NCC2c3ccccc3Cc3ccccc3N12 (stereo not shown) [epinastine, reference compound]",scratching behavior count induced by SP,SP-induced scratching [1]; 10 mg/kg p.o.,20.0±8.4 beats/60 min
same,scratching behaviour count induced by SP,"SP-induced scratching [1]; 10 mg/kg p.o., FIG. 2b, control 51.6±7.8/60 min",33.7±4.0 beats/60 min
same,effect on SP-induced scratching,SP-induced scratching [3],significant effect
"CN(CCc1cc(C(F)(F)F)cc(C(F)(F)F)c1)C(=O)[C@H](c1ccccc1)N1CCC(N(C)CCCO)CC1 [Ic, (S)-N-[2-(3,5-Bis-trifluormethyl-phenyl)-ethyl]-2-{4-[(3-hydroxy-propyl)-methyl-amino]-piperidin-1-yl}-N-methyl-2-phenyl-acetamide]",effect on SP-induced scratching compared with Compounds Ia and Ib,SP-induced scratching [1],Comparable results
same,effect on SP-induced scratching compared with Compounds Ia and Id,SP-induced scratching [2]; guinea pigs,Comparable results
